The results in this text go back to paper PMC7307930, “Stereoselective Activity of 1-Propargyl-4-styrylpiperidine-like Analogues That Can Discriminate between Monoamine Oxidase Isoforms A and B” (Journal of Medicinal Chemistry, 2020).

SMILES strings stand for the structures.

One data set relates to SH-SY5Y cells. Briefly: MTS cytotoxicity assay. The conditions noted are these: 24 h, 5 μM and 10 μM.
Regarding `C#CCN1CCC(/C=C/c2ccc(F)cc2)CC1` [Compound 1, (E)-4-(4-Fluorostyryl)-1-(prop-2-yn-1-yl)piperidine], the cytotoxic effects result is “no significant cytotoxic effects”.
Same read-out and setting: with `C#CCN1CCC(CCc2ccc(C(C)C)cc2)CC1` [Compound 97, 4-(4-Isopropylphenethyl)-1-(prop-2-yn-1-yl)piperidine] the entry was “no significant cytotoxic effects”; with `C#CCN1CCC(CCc2ccc(C#N)cc2)CC1` [Compound 102, 4-(2-(1-(Prop-2-yn-1-yl)piperidin-4-yl)ethyl)benzonitrile], “no significant cytotoxic effects”.

The next data set concerns the target T1, hMAO-A (Homo sapiens, UniProt P21397).
T1 construct: purchased Sigma Aldrich; host or cells: baculovirus-infected insect cells (BTI-TN-5B1-4)
T1 sequence (P21397 1-527): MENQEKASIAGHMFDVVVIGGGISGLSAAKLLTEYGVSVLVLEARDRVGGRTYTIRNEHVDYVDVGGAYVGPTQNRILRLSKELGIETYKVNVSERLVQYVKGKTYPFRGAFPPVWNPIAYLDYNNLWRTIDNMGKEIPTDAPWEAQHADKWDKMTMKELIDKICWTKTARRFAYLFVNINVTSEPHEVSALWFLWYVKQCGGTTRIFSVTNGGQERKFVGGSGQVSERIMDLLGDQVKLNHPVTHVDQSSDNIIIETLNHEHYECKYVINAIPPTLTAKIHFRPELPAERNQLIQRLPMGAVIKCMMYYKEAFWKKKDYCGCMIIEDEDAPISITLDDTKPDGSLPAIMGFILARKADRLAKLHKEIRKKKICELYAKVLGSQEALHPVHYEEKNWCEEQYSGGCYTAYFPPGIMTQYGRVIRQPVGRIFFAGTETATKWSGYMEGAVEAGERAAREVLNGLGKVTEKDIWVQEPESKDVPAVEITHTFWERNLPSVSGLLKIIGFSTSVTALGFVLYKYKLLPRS
In words: hMAO-A inhibition, HRP–Amplex Red coupled fluorimetric assay. Format: biochemical. Conditions: supplement csv; RA at 100 micromolar.
As to `C#CCN1CCCC(/C=C/c2ccc(F)cc2)C1` (racemic) [Compound 19, (±)-(E)-3-(4-Fluorostyryl)-1-(prop-2-yn-1-yl)piperidine], the “IC50(MAO-A) class” value is “na (na-not_active(RA_at_100micromolar>50%))”.
As to `C#CCN1CCCC(/C=C/c2cc(F)c(F)cc2F)C1` (racemic) [Compound 20, (±)-(E)-1-(Prop-2-yn-1-yl)-3-(2,4,5-trifluorostyryl)piperidine], the “IC50(MAO-A) class” value is recorded as “na (na-not_active(RA_at_100micromolar>50%))”.
`C#CCN1CCCC(CCc2ccc(F)cc2)C1` (racemic) [Compound 23, (±)-3-(4-Fluorophenethyl)-1-(prop-2-yn-1-yl)piperidine]: the “IC50(MAO-A) class” value is listed as “na (na-not_active(RA_at_100micromolar>50%))”.
Regarding `C#CCN1CCCC(CCc2cc(F)c(F)cc2F)C1` (racemic) [Compound 24, (±)-3-(2,4,5-Trifluorophenethyl)-1-(prop-2-yn-1-yl)piperidine], the “IC50(MAO-A) class” value was “na (na-not_active(RA_at_100micromolar>50%))”.
With `C#CCN1CCC(CCc2ccc(F)cc2)CC1` [Compound 25, 4-(4-Fluorophenethyl)-1-(prop-2-yn-1-yl)piperidine], the “IC50(MAO-A) class” value is on record as “na (na-not_active(RA_at_100micromolar>50%))”.
Consider `C#CCN1CCC(CCc2cc(F)c(F)cc2F)CC1` [Compound 26, 1-(Prop-2-yn-1-yl)-4-(2,4,5-trifluorophenethyl)piperidine], for which the “IC50(MAO-A) class” value is “na (na-not_active(RA_at_100micromolar>50%))”.
On the same count and under the same terms, with `C#CCN1CCC(/C=C\c2ccc(C)cc2)CC1` [Compound 75, (Z)-4-(4-Methylstyryl)-1-(prop-2-yn-1-yl)piperidine] the entry was “na (na-not_active(RA_at_100micromolar>50%))”; with `C#CCN1CCC(/C=C/c2ccc(C)cc2)CC1` [Compound 76, (E)-4-(4-Methylstyryl)-1-(prop-2-yn-1-yl)piperidine], “na (na-not_active(RA_at_100micromolar>50%))”; with `C#CCN1CCC(/C=C/c2ccc(Br)cc2)CC1` [Compound 81, (E)-4-(4-Bromostyryl)-1-(prop-2-yn-1-yl)piperidine], “na (na-not_active(RA_at_100micromolar>50%))”.
Same read-out and setting: with `C#CCN1CCC(/C=C/c2ccc(OC)cc2)CC1` [Compound 82, (E)-4-(4-Methoxystyryl)-1-(prop-2-yn-1-yl)piperidine] the entry was “na (na-not_active(RA_at_100micromolar>50%))”; with `C#CCN1CCC(/C=C\c2ccc(C(F)(F)F)cc2)CC1` [Compound 83, (Z)-1-(Prop-2-yn-1-yl)-4-(4-(trifluoromethyl)styryl)piperidine], “na (na-not_active(RA_at_100micromolar>50%))”.
`C#CCN1CCC(/C=C\c2ccc(S(C)(=O)=O)cc2)CC1` [Compound 89, (Z)-4-(4-(Methylsulfonyl)styryl)-1-(prop-2-yn-1-yl)piperidine]: the “IC50(MAO-A) class” value is “na (na-not_active(RA_at_100micromolar>50%))”.
In the case of `C#CCN1CCC(/C=C/c2ccc(S(C)(=O)=O)cc2)CC1` [Compound 90, (E)-4-(4-(Methylsulfonyl)styryl)-1-(prop-2-yn-1-yl)piperidine], the “IC50(MAO-A) class” value is reported as “na (na-not_active(RA_at_100micromolar>50%))”.
On to `C#CCN1CCC(CCc2ccc(C)cc2)CC1` [Compound 96, 4-(4-Methylphenethyl)-1-(prop-2-yn-1-yl)piperidine], for which the “IC50(MAO-A) class” value is “na (na-not_active(RA_at_100micromolar>50%))”.
Same read-out and setting: with `C#CCN1CCC(CCc2ccc(Cl)cc2)CC1` [Compound 98, 4-(4-Chlorophenethyl)-1-(prop-2-yn-1-yl)piperidine] the entry was “na (na-not_active(RA_at_100micromolar>50%))”; with `C#CCN1CCC(CCc2ccc(OC)cc2)CC1` [Compound 99, 4-(4-Methoxyphenethyl)-1-(prop-2-yn-1-yl)piperidine], “na (na-not_active(RA_at_100micromolar>50%))”; with `C#CCN1CCC(CCc2cccc(C(F)(F)F)c2)CC1` [Compound 101, 1-(Prop-2-yn-1-yl)-4-(3-(trifluoromethyl)phenethyl)piperidine], “na (na-not_active(RA_at_100micromolar>50%))”.
Still for that read-out and setting: with `C#CCN1CCC(/C=C\c2ccc(C(N)=O)cc2)CC1` [Compound 104, (Z)-4-(2-(1-(Prop-2-yn-1-yl)piperidin-4-yl)vinyl)benzamide] the entry was “na (na-not_active(RA_at_100micromolar>50%))”; with `C#CCN1CCC(/C=C/c2ccc(C(N)=O)cc2)CC1` [Compound 105, (E)-4-(2-(1-(Prop-2-yn-1-yl)piperidin-4-yl)vinyl)benzamide], “na (na-not_active(RA_at_100micromolar>50%))”; with `C#CCN1CCC(CCc2ccc(C(N)=O)cc2)CC1` [Compound 106, 4-(2-(1-(Prop-2-yn-1-yl)piperidin-4-yl)ethyl)benzamide], “na (na-not_active(RA_at_100micromolar>50%))”.
On the same count and under the same terms, with `C#CCN1CCC(CCc2ccc(O)cc2)CC1` [Compound 107, 4-(2-(1-(Prop-2-yn-1-yl)piperidin-4-yl)ethyl)phenol] the entry was “na (na-not_active(RA_at_100micromolar>50%))”.

For a further data set, the system named is Swiss mice. Briefly: Elevated plus maze test. The conditions noted are these: acute ip, 1 mg/kg. Type of data set: in vivo, mouse.
Take `CN1C(=O)CN=C(c2ccccc2)c2cc(Cl)ccc21` [Diazepam, reference compound]: the “Open arm entries (%)” value stood at 29.9 ±3.2%, the “Time in centre (%)” value worked out at 37.6 ±5.8%, the “Time in open arms (%)” value worked out at 22.3 ±3.1% and the Total arm entries was found to be 36.0 ±3.2.

For another data set, the target named is T2, 5-HT1A receptor (Rattus norvegicus, UniProt P19327).
T2 construct: from tissue; host or cells: rat (male Wistar) brain cortex membranes
T2 sequence (P19327 1-422): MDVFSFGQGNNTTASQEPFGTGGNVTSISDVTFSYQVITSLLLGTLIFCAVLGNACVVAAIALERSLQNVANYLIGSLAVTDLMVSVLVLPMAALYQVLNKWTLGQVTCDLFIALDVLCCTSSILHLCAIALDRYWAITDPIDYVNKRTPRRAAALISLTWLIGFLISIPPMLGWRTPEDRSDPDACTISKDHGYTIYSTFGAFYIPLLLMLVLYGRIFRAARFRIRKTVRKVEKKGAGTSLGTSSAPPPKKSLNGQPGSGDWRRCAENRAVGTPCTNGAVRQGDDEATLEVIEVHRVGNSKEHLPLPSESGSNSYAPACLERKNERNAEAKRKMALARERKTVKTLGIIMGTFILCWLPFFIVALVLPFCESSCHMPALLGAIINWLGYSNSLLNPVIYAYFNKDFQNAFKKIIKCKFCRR
Briefly: [3H]-8-OH-DPAT radioligand binding assay, rat cortex membranes. The conditions noted are these: [3H]-8-OH-DPAT binding, means ±SEM.
For the molecule `C#CCN1CCC(CCc2ccc(C#N)cc2)CC1` [Compound 102, 4-(2-(1-(Prop-2-yn-1-yl)piperidin-4-yl)ethyl)benzonitrile], the Ki was 8.6 ± 1.7 µM.

The data set is the same for the next values; noted with them: read-out: Inhibition at 300 µM.
Regarding `C#CCN1CCC(CCc2ccc(C#N)cc2)CC1` [Compound 102, 4-(2-(1-(Prop-2-yn-1-yl)piperidin-4-yl)ethyl)benzonitrile], the inhibition at 300 µM came out at 78%.

System in the next data set: not listed separately
In words: Thermodynamic solubility in PBS. Conditions: PBS (pH 7.4), 37 °C, 24 h, hydrochloride salts. Type of data set: physicochemical.
Consider `C#CCN1CCC(CCc2ccc(C(C)C)cc2)CC1` [Compound 97, 4-(4-Isopropylphenethyl)-1-(prop-2-yn-1-yl)piperidine], for which the thermodynamic solubility is on record as ≥ 14.5 g/250 mL.
